Measurements as given in article PMC2946430 (Biosensors & bioelectronics, 2010).

How the values were obtained:
[1] = test system: phosphorylation of MAPK and Akt in H1650-ER1, H1650-ER2 and H1650-ER4 cells; experiment: Western blot of MAPK and Akt phosphorylation, resistant clones; assay type: cell-based, human; details: for suppression of p-AKT and p-MAPK levels: resistant H1650-ER1 cells compared to parent H1650 cells
H1650 cells [2] = experiment: cells; details: Homo sapiens, NCI-H1650, 48 h, read-out: IC50, cell proliferation/viability
[3] = test system: phosphorylation of MAPK and Akt in H1650 cells; experiment: Western blot of MAPK and Akt phosphorylation, parental H1650; assay type: cell-based, human
H1650 cells [4] = experiment: Clonogenic assay, parental H1650; assay type: cell-based, human; details: parental H1650, continuous exposure 10 μM and 50 μM, 15 days
[5] = test system: EGFR kinase activity in H23 cell lysate (wild type EGFR); experiment: Hydrogel-based peptide array kinase assay, H23 cell lysate; assay type: biochemical, human; details: 0-50 μM, compared with H1650
[6] = test system: erlotinib-resistant H1650 clones; experiment: cells; details: Homo sapiens, NCI-H1650, 48 h, read-out: IC50, cell proliferation/viability
[7] = biological target: EGFR kinase activity in H1650-ER1, H1650-ER2, H1650-ER4 cell lysates (Homo sapiens, UniProt P00533, DEL746-750)

IC50 [7] [µM] | Structure (SMILES) | suppression of p-AKT and p-MAPK levels [1] | IC50 (H1650 cells [2]) [nM] | MAPK phosphorylation ([3]; parental H1650, 0, 1 and 10 μM for 5 hr, Western blot) | Akt phosphorylation ([3]; parental H1650, Western blot) | MAPK phosphorylation ([1]; H1650-ER1, H1650-ER2, H1650-ER4, 0, 1 and 10 μM for 5 hr) | Akt phosphorylation ([1]; resistant clones) | colony formation (H1650 cells [4]) | effect on substrate phosphorylation by H23 lysate [5] | IC50 [6] [µM]
 | CC#CC(=O)Nc1ccc2ncnc(Nc3cccc(Br)c3)c2c1 [CL-387,785] | persistent activity |  |  |  |  |  |  |  | 
 | C#Cc1cccc(Nc2ncnc3cc(OCCOC)c(OCCOC)cc23)c1 [erlotinib] | reduced efficacy | ~2400 | attenuation in MAPK phosphorylation | did not affect | maintained | did not affect | very few colonies | much less effective | > 20
> 10 | C[C@@H](Nc1ncnc2[nH]c(-c3ccc(O)cc3)cc12)c1ccccc1 [PKI-166] |  |  |  |  |  |  |  |  | 
